Measurements reported in PubChem BioAssay (NCI).
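All cell lines were grown in 96-well plates and treated with compound for 48 hours. At the TGI there is no net growth.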

Experiments:
Assay in all cases: growth of human tumour cells (NCI), 48 h
[1] = tested on: OVCAR-5 ovarian
[2] = tested on: HOP-62 NSCLC
[3] = tested on: SK-MEL-2 melanoma
[4] = tested on: HS 578T breast
[5] = tested on: NCI-H522 lung
[6] = tested on: K-562 leukemia
[7] = tested on: DU-145 prostate
[8] = tested on: NCI-H226 lung
[9] = tested on: A549 NSCLC
[10] = tested on: COLO 205 colon
[11] = tested on: SF-295 CNS
[12] = tested on: MDA-MB-435
[13] = tested on: UACC-62 melanoma
[14] = tested on: M14 melanoma
[15] = tested on: SR leukemia
[16] = tested on: A498 renal
[17] = tested on: HCT-116 colon
[18] = tested on: MCF7 breast
[19] = tested on: UACC-257 melanoma
[20] = tested on: HCC-2998 colon
[21] = tested on: TK-10 renal
[22] = tested on: ACHN renal
[23] = tested on: MDA-N
[24] = tested on: 786-0 renal
[25] = tested on: HOP-92 NSCLC
[26] = tested on: CAKI-1 renal
[27] = tested on: NCI/ADR-RES ovarian
[28] = tested on: MALME-3M melanoma
[29] = tested on: SK-MEL-28 melanoma
[30] = tested on: EKVX NSCLC
[31] = tested on: RXF 393 renal
[32] = tested on: SW-620 colon
[33] = tested on: NCI-H23 lung
[34] = tested on: SNB-19 CNS
[35] = tested on: OVCAR-8 ovarian
[36] = tested on: U251 CNS
[37] = tested on: RPMI-8226 leukemia
[38] = tested on: HCT-15 colon
[39] = tested on: BT-549 breast
[40] = tested on: T-47D breast
[41] = tested on: LOX IMVI melanoma
[42] = tested on: SF-539 CNS
[43] = tested on: SK-MEL-5 melanoma
[44] = tested on: OVCAR-4 ovarian
[45] = tested on: UO-31 renal
[46] = tested on: OVCAR-3 ovarian
[47] = tested on: SF-268 CNS
[48] = tested on: MOLT-4 leukemia
[49] = tested on: KM12 colon
[50] = tested on: MDA-MB-231 breast
[51] = tested on: SN12C renal
[52] = tested on: NCI-H460 lung
[53] = tested on: SK-OV-3 ovarian
[54] = tested on: HT29 colon
[55] = tested on: IGROV1 ovarian
[56] = tested on: HL-60(TB) leukemia
[57] = tested on: CCRF-CEM leukemia
[58] = tested on: PC-3 prostate
[59] = tested on: SNB-75 CNS

NS(=O)(=O)c1nnc(NC(=O)C23CC4CC(CC(C4)C2)C3)s1
TGI [1]: > 100 µM | TGI [2]: > 100 µM | TGI [3]: > 100 µM | TGI [4]: > 100 µM | TGI [5]: > 100 µM | TGI [6]: > 100 µM | TGI [7]: > 100 µM | TGI [8]: > 100 µM | TGI [9]: > 100 µM | TGI [10]: > 100 µM | TGI [11]: > 100 µM | TGI [12]: > 100 µM | TGI [13]: > 100 µM | TGI [14]: > 100 µM | TGI [15]: > 100 µM | TGI [16]: > 100 µM | TGI [17]: > 100 µM | TGI [18]: > 100 µM | TGI [19]: > 100 µM | TGI [20]: > 100 µM | TGI [21]: > 100 µM | TGI [22]: > 100 µM | TGI [23]: > 100 µM | TGI [24]: > 100 µM | TGI [25]: > 100 µM | TGI [26]: > 100 µM | TGI [27]: > 100 µM | TGI [28]: > 100 µM | TGI [29]: > 100 µM | TGI [30]: > 100 µM | TGI [31]: > 100 µM | TGI [32]: > 100 µM | TGI [33]: > 100 µM | TGI [34]: > 100 µM | TGI [35]: > 100 µM | TGI [36]: > 100 µM | TGI [37]: > 100 µM | TGI [38]: > 100 µM | TGI [39]: > 100 µM | TGI [40]: > 100 µM | TGI [41]: > 100 µM | TGI [42]: > 100 µM | TGI [43]: > 100 µM | TGI [44]: 3.74 µM | TGI [45]: > 100 µM | TGI [46]: > 100 µM | TGI [47]: > 100 µM | TGI [48]: > 100 µM | TGI [49]: > 100 µM | TGI [50]: > 100 µM | TGI [51]: > 100 µM | TGI [52]: > 100 µM | TGI [53]: > 100 µM

S=C1NC2=C(COc3ccccc32)C(c2ccc(Cl)cc2)N1 (stereo unspecified)
TGI [1]: 30.7 µM | TGI [54]: 31.7 µM | TGI [2]: 31 µM | TGI [3]: 29 µM | TGI [4]: 50.4 µM | TGI [6]: 38.1 µM | TGI [7]: 35.7 µM | TGI [8]: 36 µM | TGI [55]: 31.6 µM | TGI [9]: 48.2 µM | TGI [10]: 36.9 µM | TGI [11]: 29 µM | TGI [12]: 58.2 µM | TGI [13]: 34.7 µM | TGI [14]: 34.5 µM | TGI [16]: 39.1 µM | TGI [17]: 28.9 µM | TGI [18]: 38.4 µM | TGI [19]: 41.6 µM | TGI [56]: 43.3 µM | TGI [57]: 64.7 µM | TGI [22]: 43.6 µM | TGI [23]: 29.9 µM | TGI [24]: 34.5 µM | TGI [58]: 26.2 µM | TGI [27]: 41.3 µM | TGI [29]: 46.8 µM | TGI [59]: 38 µM | TGI [30]: 34.2 µM | TGI [31]: 37.4 µM | TGI [32]: 78.8 µM | TGI [33]: 45.9 µM | TGI [34]: 45.3 µM | TGI [35]: 41.7 µM | TGI [37]: 22.4 µM | TGI [39]: 41.5 µM | TGI [40]: 45 µM | TGI [41]: 30.3 µM | TGI [42]: 34.9 µM | TGI [43]: 30.5 µM | TGI [45]: 35.1 µM | TGI [46]: 28.7 µM | TGI [47]: 39.7 µM | TGI [48]: 38.7 µM | TGI [49]: 32.7 µM | TGI [50]: 34 µM | TGI [51]: 8.64 µM | TGI [53]: 35.8 µM
